The supplement of paper PMC10331698
± gives the standard deviation of the averaged measurements.

What was measured:
Assay in all cases: LOEC (log10 uM (lowest observed effect concentration))
Perfluorooctanamidine = compound: N=C(N)C(F)(F)C(F)(F)C(F)(F)C(F)(F)C(F)(F)C(F)(F)C(F)(F)F [Perfluorooctanamidine]
Description: (§1)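 BioMAP Diversity Plus panel in human primary cell co-cultures, 4 concentrations in duplicate blinded samples. Responses are log10 fold change versus DMSO control, processed with tcpl v2.1.0. A hit is called when responses at any concentration exceed the cutoff (the larger of 3*bmad or log10(1.2)); the lowest observed effect concentration (modl_ga, log10 uM) is reported for hits.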

[1] = compound: O=C(O)C(F)(F)C(F)(F)C(F)(F)C(F)(F)C(F)(F)C(F)(F)C(F)(F)C(F)(F)C(F)(F)C(F)(F)C(F)(F)C(F)(F)F [Perfluorotridecanoic acid]
Description: as §1

[2] = compound: O=C(O)C(F)(F)C(F)(F)C(F)(F)C(F)(F)C(F)(F)C(F)(F)C(F)(F)C(F)(F)Cl [9-Chloro-perfluorononanoic acid]
Description: as §1

[3] = compound: O=C(O)C(F)(F)OC(F)(F)C(F)(F)OC(F)(F)C(F)(F)C(F)(F)C(F)(F)F [Perfluoro-3,6-dioxadecanoic acid]
Description: as §1

[4] = compound: O=S(=O)(O)C(F)(F)C(F)(F)C(F)(F)C(F)(F)C(F)(F)C(F)(F)C(F)(F)C(F)(F)F [Potassium perfluorooctanesulfonate]
Description: as §1

[5] = compound: O=S(=O)(O)C(F)(F)C(F)(F)C(F)(F)C(F)(F)C(F)(F)C(F)(F)C(F)(F)C(F)(F)F [Perfluorooctanesulfonic acid]
Description: as §1

Azathioprine = compound: Cn1cnc([N+](=O)[O-])c1Sc1ncnc2[nH]cnc12 [Azathioprine]
Description: as §1

[6] = compound: C=CC(=O)OCCC(F)(F)C(F)(F)C(F)(F)C(F)(F)F [2-(Perfluorobutyl)ethyl acrylate]
Description: as §1

Test System: IMphg VCAM1 down
- LOEC (log10 uM) (Perfluorooctanamidine): 1.78
- LOEC (log10 uM) [1]: 1.22 ± 0.37
- LOEC (log10 uM) [2]: 1.78

Test System: KF3CT ICAM1 down
- LOEC (log10 uM) [2]: 1.78

Test System: KF3CT IL1a down
- LOEC (log10 uM) [1]: 1.22 ± 0.37
- LOEC (log10 uM) [2]: 1.78

Test System: KF3CT IP10 down
- LOEC (log10 uM) [3]: 1.78
- LOEC (log10 uM) [2]: 1.78

Test System: KF3CT MCP1 down
- LOEC (log10 uM) [2]: 1.78

Test System: KF3CT MIG down
- LOEC (log10 uM) [2]: 1.78

Test System: KF3CT PAI1 down
- LOEC (log10 uM) [4]: 1.78
- LOEC (log10 uM) [5]: 1.78
- LOEC (log10 uM) [2]: 1.3

Test System: KF3CT SRB down
- LOEC (log10 uM) [2]: 1.78

Test System: KF3CT TIMP2 down
- LOEC (log10 uM) [2]: 1.78

Test System: KF3CT uPA down
- LOEC (log10 uM) [2]: 1.78

Test System: LPS CD69 down
- LOEC (log10 uM) (Perfluorooctanamidine): 1.78
- LOEC (log10 uM) [3]: 1.78
- LOEC (log10 uM) [2]: 1.78

Test System: LPS IL8 up
- LOEC (log10 uM) [2]: 1.54 ± 0.34

Test System: LPS MCP1 down
- LOEC (log10 uM) [2]: 1.78

Test System: LPS MCSF up
- LOEC (log10 uM) [2]: 1.78

Test System: LPS PGE2 down
- LOEC (log10 uM) [3]: 1.3
- LOEC (log10 uM) [2]: 1.78

Test System: LPS SRB down
- LOEC (log10 uM) [2]: 1.78

Test System: LPS TNFa down
- LOEC (log10 uM) (Azathioprine): 1.48

Test System: LPS Thrombomodulin up
- LOEC (log10 uM) [2]: 1.78

Test System: LPS VCAM1 down
- LOEC (log10 uM) (Azathioprine): 1.22 ± 0.37
- LOEC (log10 uM) (Perfluorooctanamidine): 1.78
- LOEC (log10 uM) [3]: 1.78
- LOEC (log10 uM) [6]: 1.78

Test System: MyoF ACTA1 down
- LOEC (log10 uM) [2]: 1.78

Test System: MyoF CollagenI down
- LOEC (log10 uM) [3]: 1.78
- LOEC (log10 uM) [1]: 1.48
- LOEC (log10 uM) [2]: 1.3

Test System: MyoF CollagenIII down
- LOEC (log10 uM) [3]: 1.78
- LOEC (log10 uM) [2]: 1.3

Test System: MyoF MMP1 up
- LOEC (log10 uM) [2]: 1.78

Test System: MyoF PAI1 down
- LOEC (log10 uM) [2]: 1.78

Test System: MyoF SRB down
- LOEC (log10 uM) [2]: 1.78

Test System: MyoF TIMP1 down
- LOEC (log10 uM) [2]: 1.78

Test System: MyoF TIMP1 up
- LOEC (log10 uM) [3]: 1.3

Test System: MyoF VCAM1 down
- LOEC (log10 uM) [2]: 1.54 ± 0.34

Test System: SAg CD38 down
- LOEC (log10 uM) [6]: 1.78
- LOEC (log10 uM) [2]: 1.78

Test System: SAg CD69 down
- LOEC (log10 uM) (Azathioprine): 1.48
- LOEC (log10 uM) [6]: 1.78
- LOEC (log10 uM) [2]: 1.78

Test System: SAg Eselectin down
- LOEC (log10 uM) (Azathioprine): 1.48
- LOEC (log10 uM) [6]: 1.78

Test System: SAg IL8 down
- LOEC (log10 uM) (Azathioprine): 1.48
- LOEC (log10 uM) [6]: 1.78
- LOEC (log10 uM) [2]: 1.78

Test System: SAg MCP1 down
- LOEC (log10 uM) [6]: 1.78
- LOEC (log10 uM) [2]: 1.78

Test System: SAg PBMCCytotoxicity down
- LOEC (log10 uM) (Perfluorooctanamidine): 1.78
- LOEC (log10 uM) [6]: 1.78

Test System: SAg Proliferation down
- LOEC (log10 uM) (Azathioprine): 0.954
- LOEC (log10 uM) (Perfluorooctanamidine): 1.78
- LOEC (log10 uM) [6]: 1.54 ± 0.34

Test System: hDFCGF EGFR down
- LOEC (log10 uM) [3]: 1.78

Test System: hDFCGF ITAC down
- LOEC (log10 uM) (Azathioprine): 0.977 ± 0.71
- LOEC (log10 uM) [3]: 1.54 ± 0.34
- LOEC (log10 uM) [4]: 1.78
- LOEC (log10 uM) [1]: 0.239 ± 0.34
- LOEC (log10 uM) [6]: 1.07 ± 0.32
- LOEC (log10 uM) [2]: 0.573 ± 0.39

Test System: hDFCGF MCP1 down
- LOEC (log10 uM) [2]: 1.78

Test System: hDFCGF MCSF down
- LOEC (log10 uM) (Azathioprine): 1.48
- LOEC (log10 uM) (Perfluorooctanamidine): 1.78
- LOEC (log10 uM) [3]: 1.78
- LOEC (log10 uM) [4]: 1.78
- LOEC (log10 uM) [6]: 1.3
- LOEC (log10 uM) [2]: 1.78

Test System: hDFCGF MIG down
- LOEC (log10 uM) [3]: 1.54 ± 0.34
- LOEC (log10 uM) [4]: 1.78
- LOEC (log10 uM) [1]: 0.716 ± 0.34
- LOEC (log10 uM) [6]: 1.3
- LOEC (log10 uM) [2]: 1.3

Test System: hDFCGF MMP1 down
- LOEC (log10 uM) [2]: 0.845

Test System: hDFCGF MMP1 up
- LOEC (log10 uM) [6]: 1.54 ± 0.34

Test System: hDFCGF SRB down
- LOEC (log10 uM) [2]: 1.78

Test System: hDFCGF TIMP2 down
- LOEC (log10 uM) [4]: 1.54 ± 0.34
- LOEC (log10 uM) [5]: 1.78
- LOEC (log10 uM) [2]: 1.3
